Measured values taken from US8138194B2, “Fused bicyclic pyrimidine compounds as aurora kinase inhibitors” (National Health Research Institutes, priority 2008, dated 2012).
Values joined by “and” are separate entries in the source; they are usually repeats but may differ in a detail not shown here. Identical values can stand only once. Like-named read-outs stand apart in the source and are kept apart here.

Legend:
HCT-116 cells = test: HCT-116 cell viability MTS assay; type: cell-based; details: Homo sapiens
Procedure: HCT-116 cell viability was examined by the MTS assay (Promega, Madison, Wis., USA). 2000 HCT-116 cells in 100 μL McCoy's 5a medium were seeded in each well of a 96-well plate. After 96-h incubation with a test compound, the cells were incubated with 20 μL of a MTS/PMS mixture (MTS/PMS ratio: 20: 1) for 2 h at 37° C. in a humidified incubator with 5% CO2 to allow viable cells to convert the tetrazolium salt (MTS) into formazan. The amount/concentration of formazan, which indicates the number of live cells, was determined by measuring the absorbance at 490 nm using a PerkinElmer Victor2 plate reader (PerkinElmer, Shelton, Cont., USA).

[1] = biological target: T1, GST-tAurora A (123-401aa) fusion protein (Homo sapiens, UniProt O14965); test: Aurora Kinase A luminescent kinase assay; type: biochemical; details: IC50 (concentration of a test compound at which activity of 50% of Aurora A is inhibited)
T1 construct: GST-tAurora A (123-401aa) fusion protein; made in house; host or cells: Sf9 insect cells (baculovirus, pBacPAK8)
T1 sequence (O14965 123-401): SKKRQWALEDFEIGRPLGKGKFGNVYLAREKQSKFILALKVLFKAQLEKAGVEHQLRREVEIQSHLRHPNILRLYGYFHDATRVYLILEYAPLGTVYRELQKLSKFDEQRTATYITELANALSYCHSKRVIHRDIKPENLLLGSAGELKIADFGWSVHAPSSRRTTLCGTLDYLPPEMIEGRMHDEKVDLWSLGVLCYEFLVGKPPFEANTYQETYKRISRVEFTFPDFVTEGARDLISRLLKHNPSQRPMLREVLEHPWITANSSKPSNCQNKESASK
Procedure: The Aurora A catalytic domain with an N-terminal GST tag was constructed in pBacPAK8 plasmid and expressed in sf9 cells. […] To concentrate GST-tAurora A, buffer was replaced with Tris buffer (100 mM Tris (pH 7.5), 300 mM NaCl, 1 mM EDTA, 4 mM DTT) using Amicon ultra-15 (MWCO:30K, Millipore) to 2.4 mg/ml. After the addition of equal volume of glycerol and 0.04% Triton X-100, the proteins were stored aliquoted at −80° C.
Briefly, a test compound, enzyme, substrate-tetra(LRRWSLG), DTT and ATP were dissolved in Aur buffer (50 mM Tris-HCl pH 7.4, 10 mM NaCl, 10 mM MgCl2, and 100 μg/ml BSA) individually before the assay. […] 5 μM ATP (5 μl), 1 mM DTT (5 μl) and 0.1 mM tetra(LRRWSLG) peptide substrate (5 μl) were added into the reactions of test compounds and GST-tAurora A. The reactions were incubated at 37° C. for 90 min. 50 μl of Kinase-Glo Plus Reagent (V3771, Promega) was added into the reactions, followed by the incubation at 25° C. for 20 min.

[2] = read-out: IC50 (concentration of a test compound which causes 50% of the cell death), HCT-116, 96-h incubation, MTS

Structure (SMILES) | IC50 [1] | IC50 (HCT-116 cells; [2]) [µM] | IC50 (HCT-116 cells; HCT-116, 96 h, read-out: IC50 (concentration of a test compound which causes 50% of the cell death), HCT-116, 96-h incubation, MTS) [µM] | IC50 (HCT-116 cells; HCT-116, 96 h, read-out: IC50 (concentration of a test compound which causes 50% of the cell death)) [µM]
O=C(Nc1ccccc1)Nc1ccc(CCNc2ncnc3oc(-c4ccccc4)c(-c4ccccc4)c23)cc1 [Compound 6, 1-(4-(2-(5,6-diphenylfuro[2,3-d]pyrimidin-4-ylamino)ethyl)phenyl)-3-phenylurea] |  | 0.1 to 0.9 |  | 
COc1ccc(-c2oc3ncnc(NCCc4ccc(NC(=O)Nc5ccccc5)cc4)c3c2-c2ccc(OC)cc2)cc1 [Compound 23] | 0.045 to 0.4 µM and < 1 µM | 0.1 to 0.9 |  | 
O=C(Nc1ccccc1)Nc1ccc(CCNc2ncnc3oc(-c4ccc(O)cc4)c(-c4ccc(O)cc4)c23)cc1 [Compound 24] | < 1 µM | 0.1 to 0.9 |  | 
O=C(Nc1ccccc1)Nc1ccc(CCNc2ncnc3sc4c(c23)CCCC4)cc1 [Compound 42, N-phenyl-N′-4-[2-(5,6,7,8-tetrahydrobenzo[4,5]thieno[2,3-d]pyrimidin-4-ylamino)ethyl]phenylurea] | 0.045 to 0.4 µM and < 1 µM | 0.1 to 0.9 |  | 
O=C(Nc1ccc(CCNc2ncnc3oc(-c4ccccc4)c(-c4ccccc4)c23)cc1)Nc1ccc(F)cc1F [Compound 92] | < 1 µM | 0.1 to 0.9 |  | 
CN(C)Cc1ccccc1NC(=O)Nc1ccc(CCNc2ncnc3oc(-c4ccccc4)c(-c4ccccc4)c23)cc1 [Compound 123] | 0.045 to 0.4 µM and < 1 µM | 0.1 to 0.9 |  | 
O=C(Nc1ccc(CCNc2ncnc3oc(-c4ccccc4)c(-c4ccccc4)c23)cc1)Nc1cnccn1 [Compound 151] | < 1 µM |  |  | 
Cc1cc(NC(=O)Nc2ccc(CCNc3ncnc4oc(-c5ccccc5)c(-c5ccccc5)c34)cc2)no1 [Compound 160] | < 1 µM |  |  | 
Cc1cc(NC(=O)Nc2ccc(CCNc3ncnc4oc(-c5ccccc5)c(-c5ccccc5)c34)cc2)on1 [Compound 161] | < 1 µM and 0.045 to 0.4 µM |  |  | 
Cc1csc(NC(=O)Nc2ccc(CCNc3ncnc4oc(-c5ccccc5)c(-c5ccccc5)c34)cc2)n1 [Compound 163] | < 1 µM and 0.045 to 0.4 µM |  |  | 
Cc1cnc(NC(=O)Nc2ccc(CCNc3ncnc4oc(-c5ccccc5)c(-c5ccccc5)c34)cc2)s1 [Compound 164] | < 1 µM |  |  | 
O=C(Nc1ccccc1)Nc1ncc(CCNc2ncnc3oc(-c4ccccc4)c(-c4ccccc4)c23)s1 [Compound 171] | 0.045 to 0.4 µM and < 1 µM | 0.1 to 0.9 |  | 
O=C(Nc1ccccc1)Nc1ccc(CCNc2ncnc3oc4c(c23)CCCC4)cc1 [Compound 173] | < 1 µM |  |  | 
O=C(Nc1ccccc1)Nc1ccc(CCNc2ncnc3sc4c(c23)CCC4)cc1 [Compound 196] | 0.045 to 0.4 µM and < 1 µM | 0.1 to 0.9 |  | 
CN(C)CCNC(=O)Nc1ccc(CCNc2ncnc3oc(-c4ccccc4)c(-c4ccccc4)c23)cc1 [Compound 198] | 0.045 to 0.4 µM and < 1 µM |  |  | 
O=C(NCCO)Nc1ccc(CCNc2ncnc3oc(-c4ccccc4)c(-c4ccccc4)c23)cc1 [Compound 199] | 0.045 to 0.4 µM and < 1 µM |  |  | 
CCOC(=O)CNC(=O)Nc1ccc(CCNc2ncnc3oc(-c4ccccc4)c(-c4ccccc4)c23)cc1 [Compound 200] | < 1 µM |  |  | 

Structure (SMILES) | IC50 [1] | IC50 (HCT-116 cells; [2]) [µM] | IC50 (HCT-116 cells; HCT-116, 96 h, read-out: IC50 (concentration of a test compound which causes 50% of the cell death), HCT-116, 96-h incubation, MTS) [µM] | IC50 (HCT-116 cells; HCT-116, 96 h, read-out: IC50 (concentration of a test compound which causes 50% of the cell death)) [µM]
O=C(Nc1ccc(CCNc2ncnc3oc(-c4ccccc4)c(-c4ccccc4)c23)cc1)NC1CC1 [Compound 201] | < 1 µM and 0.045 to 0.4 µM |  |  | 
O=C(Nc1ccccc1)Nc1ccc(CCNc2ncnc3oc(-c4ccccc4)c(C#CCO)c23)cc1 [Compound 202] | < 1 µM and 0.045 to 0.4 µM | 0.1 to 0.9 |  | 
COc1ccc(-c2cc3c(NCCc4ccc(NC(=O)Nc5ccccc5)cc4)ncnc3o2)cc1 [Compound 204] | < 1 µM and 0.045 to 0.4 µM | 0.1 to 0.9 |  | 
O=C(Nc1ccccc1)Nc1ccc(CCNc2ncnc3oc(-c4ccc(O)cc4)cc23)cc1 [Compound 205] | < 1 µM and 0.045 to 0.4 µM | < 0.1 |  | 
CN(C)CCOc1ccc(-c2cc3c(NCCc4ccc(NC(=O)Nc5ccccc5)cc4)ncnc3o2)cc1 [Compound 207] |  |  | 0.1 to 0.9 | 
CCOC(=O)N1CCc2c(sc3ncnc(NCCc4ccc(NC(=O)Nc5ccccc5)cc4)c23)C1 [Compound 208] | < 1 µM and 0.045 to 0.4 µM |  |  | 
CN(C)Cc1ccccc1NC(=O)Nc1ccc(CCNc2ncnc3oc(-c4ccccc4)cc23)cc1 [Compound 211] | < 1 µM and 0.045 to 0.4 µM | 0.1 to 0.9 |  | 
O=C(Nc1ccc(CCNc2ncnc3oc(-c4ccccc4)c(-c4ccccc4)c23)cc1)NC1CCC1 [Compound 214] | 0.045 to 0.4 µM and < 1 µM | 0.1 to 0.9 |  | 
O=C(NCCCl)Nc1ccc(CCNc2ncnc3oc(-c4ccccc4)cc23)cc1 [Compound 215] | < 1 µM |  |  | 0.1 to 0.9
O=C(NCCCCl)Nc1ccc(CCNc2ncnc3oc(-c4ccccc4)c(-c4ccccc4)c23)cc1 [Compound 227] | < 1 µM |  |  | 
O=C(Nc1ccc(CCNc2ncnc3oc(-c4ccccc4)c(Cl)c23)cc1)c1ccccc1 [Compound 228] | < 1 µM |  |  | 
O=C(Nc1ccc(CCNc2ncnc3oc(-c4ccccc4)cc23)cc1)c1ccccc1 [Compound 229] | < 1 µM |  |  | 
O=C(Nc1ccc(CCNc2ncnc3oc(-c4ccccc4)cc23)cc1)Nc1cccnc1 [Compound 231] | < 1 µM |  |  | 
CN(C)CCNC(=O)Nc1ccc(CCNc2ncnc3oc(-c4ccccc4)cc23)cc1 [Compound 233] | < 1 µM |  |  | 
CN(C)CCNC(=O)Nc1ccc(CCNc2ncnc3oc(-c4ccccc4)c(Cl)c23)cc1 [Compound 234] | < 1 µM |  |  | 
Cc1cc(NC(=O)Nc2ccc(CCNc3ncnc4oc(-c5ccccc5)c(-c5ccccc5)c34)cc2)n[nH]1 [Compound 238] | < 1 µM |  |  | 
CC(C)(C)OC(=O)N1CCN(CCCOc2ccc(-c3cc4c(NCCc5ccc(NC(=O)Nc6ccccc6)cc5)ncnc4o3)cc2)CC1 [Compound 242] | < 1 µM and 0.045 to 0.4 µM |  |  | 

Second part, led by results:

IC50 [1] | Structure (SMILES) | IC50 (HCT-116 cells; [2]) [µM] | IC50 (HCT-116 cells; HCT-116, 96 h, read-out: IC50 (concentration of a test compound which causes 50% of the cell death), HCT-116, 96-h incubation, MTS) [µM] | IC50 (HCT-116 cells; HCT-116, 96 h, read-out: IC50 (concentration of a test compound which causes 50% of the cell death)) [µM]
0.045 to 0.4 µM and < 1 µM | O=C(Nc1ccc(CCNc2ncnc3oc(-c4ccccc4)c(-c4ccccc4)c23)cc1)Nc1cccc(F)c1 [Compound 14] | 0.1 to 0.9 |  | 
0.045 to 0.4 µM and < 1 µM | O=C(Nc1ccccc1)Nc1ccc(CCNc2ncnc3oc(-c4ccccc4)c(Br)c23)cc1 [Compound 57] | 0.1 to 0.9 |  | 
< 1 µM | CC(=O)Nc1ccc(-c2c(-c3ccccc3)oc3ncnc(NCCc4ccc(NC(=O)Nc5ccccc5)cc4)c23)cc1 [Compound 58] | 0.1 to 0.9 |  | 
< 1 µM | O=C(Nc1ccccc1)Nc1ccc(CCNc2ncnc3oc(-c4ccccc4)c(-c4ccc(O)cc4)c23)cc1 [Compound 60] | 0.1 to 0.9 |  | 
0.045 to 0.4 µM and < 1 µM | O=C(Nc1ccc(F)cc1)Nc1ccc(CCNc2ncnc3oc(-c4ccccc4)c(-c4ccccc4)c23)cc1 [Compound 61] | 0.1 to 0.9 |  | 
0.045 to 0.4 µM and < 1 µM | O=C(Nc1ccccc1)Nc1ccc(CCNc2ncnc3oc(-c4ccccc4)cc23)cc1 [Compound 79] | 0.1 to 0.9 |  | 
0.045 to 0.4 µM and < 1 µM | CC(=O)Nc1cccc(-c2c(-c3ccccc3)oc3ncnc(NCCc4ccc(NC(=O)Nc5ccccc5)cc4)c23)c1 [Compound 80] | 0.1 to 0.9 |  | 
< 1 µM | O=C(Nc1ccc(Cl)cc1)Nc1ccc(CCNc2ncnc3oc(-c4ccccc4)c(-c4ccccc4)c23)cc1 [Compound 93] | 0.1 to 0.9 |  | 
0.045 to 0.4 µM and < 1 µM | O=C(Nc1ccc(CCNc2ncnc3oc(-c4ccccc4)c(-c4ccccc4)c23)cc1)Nc1ccccc1F [Compound 96] | 0.1 to 0.9 |  | 
< 1 µM | CN(C)Cc1ccc(NC(=O)Nc2ccc(CCNc3ncnc4oc(-c5ccccc5)c(-c5ccccc5)c34)cc2)cc1 [Compound 115] | 0.1 to 0.9 |  | 
0.045 to 0.4 µM and < 1 µM | O=C(Nc1ccc(CCNc2ncnc3oc(-c4ccccc4)c(-c4ccccc4)c23)cc1)Nc1cccnc1 [Compound 147] | 0.1 to 0.9 |  | 
< 1 µM | O=C(Nc1ccncc1)Nc1ccc(CCNc2ncnc3oc(-c4ccccc4)c(-c4ccccc4)c23)cc1 [Compound 148] | 0.1 to 0.9 |  | 
0.045 to 0.4 µM and < 1 µM | O=C(Nc1ccccc1)Nc1ccc(CCNc2ncnc3[nH]c(-c4ccccc4)c(-c4ccccc4)c23)cc1 [Compound 172] | 0.1 to 0.9 |  | 
< 1 µM | O=C(Nc1ccccc1)Nc1ccc(CCNc2ncnc3cc(-c4ccccc4)oc23)cc1 [Compound 176] | 0.1 to 0.9 |  | 
< 1 µM | O=C(Nc1ccc(CCNc2ncnc3oc(-c4ccccc4)c(-c4ccccc4)c23)cc1)Nc1ccccc1Br [Compound 197] |  |  | 
< 1 µM and 0.045 to 0.4 µM | O=C(Nc1ccccc1)Nc1ccc(CCNc2ncnc3occ(-c4ccccc4)c23)cc1 [Compound 203] |  |  | 
< 1 µM | O=C(Nc1ccccc1)Nc1ccc(CCNc2ncnc3oc(Cl)c(-c4ccccc4)c23)cc1 [Compound 213] | 0.1 to 0.9 |  | 
